According to ChEMBL document CHEMBL3046013, “Pyrithiobac reduces control of green foxtail (Setaria viridis) and bristly foxtail (Setaria verticillata) by propaquizafop” (2009):

What was measured:
Assay type in all cases: functional
Parameters in all cases: scale not given: the % may be the effect or the level left
Setaria verticillata [1] = assay: Herbicidal activity against Setaria verticillata assessed as reduction of fresh weight at 75 g ai/ha after 45 days in presence of 68 g ai/ha of pyrithiobac relative to control
Setaria verticillata [2] = assay: Herbicidal activity against Setaria verticillata assessed as reduction of fresh weight at 100 g ai/ha after 45 days in presence of 68 g ai/ha of pyrithiobac relative to control
Setaria viridis [3] = assay: Herbicidal activity against Setaria viridis (green foxtail) assessed as reduction of fresh weight at 100 g ai/ha after 45 days relative to control
Setaria viridis [4] = assay: Herbicidal activity against Setaria viridis (green foxtail) assessed as reduction of fresh weight at 75 g ai/ha after 45 days in presence of 68 g ai/ha of pyrithiobac treated 3 days after compound challenge relative to control
Setaria viridis [5] = assay: Herbicidal activity against Setaria viridis (green foxtail) assessed as reduction of fresh weight at 75 g ai/ha after 45 days relative to control
Setaria verticillata [6] = assay: Herbicidal activity against Setaria verticillata assessed as reduction of fresh weight at 100 g ai/ha after 45 days relative to control
Setaria viridis [7] = assay: Herbicidal activity against Setaria viridis (green foxtail) assessed as reduction of fresh weight at 150 g ai/ha after 45 days in presence of 68 g ai/ha of pyrithiobac relative to control
Setaria verticillata [8] = assay: Herbicidal activity against Setaria verticillata assessed as reduction of fresh weight at 125 g ai/ha after 45 days in presence of 68 g ai/ha of pyrithiobac relative to control
Setaria verticillata [9] = assay: Herbicidal activity against Setaria verticillata assessed as reduction of fresh weight at 150 g ai/ha after 45 days relative to control
Setaria verticillata [10] = assay: Herbicidal activity against Setaria verticillata assessed as reduction of fresh weight at 75 g ai/ha after 45 days relative to control
Setaria viridis [11] = assay: Herbicidal activity against Setaria viridis (green foxtail) assessed as reduction of fresh weight at 125 g ai/ha after 45 days in presence of 68 g ai/ha of pyrithiobac relative to control
Setaria verticillata [12] = assay: Herbicidal activity against Setaria verticillata assessed as reduction of fresh weight at 75 g ai/ha after 45 days in presence of 68 g ai/ha of pyrithiobac treated 1 day after compound challenge relative to control
Setaria verticillata [13] = assay: Herbicidal activity against Setaria verticillata assessed as reduction of fresh weight at 75 g ai/ha after 45 days relative to control in presence of ammonium sulphate
Setaria verticillata [14] = assay: Herbicidal activity against Setaria verticillata assessed as reduction of fresh weight at 125 g ai/ha after 45 days relative to control
Setaria viridis [15] = assay: Herbicidal activity against Setaria viridis (green foxtail) assessed as reduction of fresh weight at 75 g ai/ha after 45 days in presence of 68 g ai/ha of pyrithiobac and ammonium sulphate relative to control
Setaria viridis [16] = assay: Herbicidal activity against Setaria viridis (green foxtail) assessed as reduction of fresh weight at 75 g ai/ha after 45 days relative to control in presence of ammonium sulphate
Setaria viridis [17] = assay: Herbicidal activity against Setaria viridis (green foxtail) assessed as reduction of fresh weight at 100 g ai/ha after 45 days in presence of 68 g ai/ha of pyrithiobac relative to control
Setaria viridis [18] = assay: Herbicidal activity against Setaria viridis (green foxtail) assessed as reduction of fresh weight at 150 g ai/ha after 45 days relative to control
Setaria viridis [19] = assay: Herbicidal activity against Setaria viridis (green foxtail) assessed as reduction of fresh weight at 75 g ai/ha after 45 days in presence of 68 g ai/ha of pyrithiobac treated 1 day after compound challenge relative to control
Setaria viridis [20] = assay: Herbicidal activity against Setaria viridis (green foxtail) assessed as reduction of fresh weight at 125 g ai/ha after 45 days relative to control
Setaria verticillata [21] = assay: Herbicidal activity against Setaria verticillata assessed as reduction of fresh weight at 75 g ai/ha after 45 days in presence of 68 g ai/ha of pyrithiobac treated 3 days before compound challenge relative to control
Setaria viridis [22] = assay: Herbicidal activity against Setaria viridis (green foxtail) assessed as reduction of fresh weight at 75 g ai/ha after 45 days in presence of 68 g ai/ha of pyrithiobac treated 1 day before compound challenge relative to control
Setaria viridis [23] = assay: Herbicidal activity against Setaria viridis (green foxtail) assessed as reduction of fresh weight at 75 g ai/ha after 45 days in presence of 68 g ai/ha of pyrithiobac treated 3 days before compound challenge relative to control
Setaria verticillata [24] = assay: Herbicidal activity against Setaria verticillata assessed as reduction of fresh weight at 75 g ai/ha after 45 days in presence of 68 g ai/ha of pyrithiobac treated 3 days after compound challenge relative to control
Setaria viridis [25] = assay: Herbicidal activity against Setaria viridis (green foxtail) assessed as reduction of fresh weight at 75 g ai/ha after 45 days in presence of 68 g ai/ha of pyrithiobac relative to control
Setaria verticillata [26] = assay: Herbicidal activity against Setaria verticillata assessed as reduction of fresh weight at 150 g ai/ha after 45 days in presence of 68 g ai/ha of pyrithiobac relative to control
Setaria verticillata [27] = assay: Herbicidal activity against Setaria verticillata assessed as reduction of fresh weight at 75 g ai/ha after 45 days in presence of 68 g ai/ha of pyrithiobac treated 1 day before compound challenge relative to control

**Q.** For `CC(C)=NOCCOC(=O)[C@@H](C)Oc1ccc(Oc2cnc3cc(Cl)ccc3n2)cc1` [PROPAQUIZAFOP], which Activity (Setaria verticillata [1]) is on record?
**A.** Its Activity is 70%.

**Q.** And the Activity (Setaria verticillata [2])?
**A.** The Activity was 73%.

**Q.** And the Activity (Setaria viridis [3])?
**A.** Its Activity is 91%.

**Q.** What about the Activity (Setaria viridis [4]) of the same molecule?
**A.** Its Activity is 85%.

**Q.** And the Activity (Setaria viridis [5])?
**A.** Its Activity is 86%.

**Q.** What about the Activity (Setaria verticillata [6]) of the same molecule?
**A.** The Activity was 95%.

**Q.** What about the Activity (Setaria viridis [7]) of the same molecule?
**A.** The Activity was 72%.

**Q.** And the Activity (Setaria verticillata [8])?
**A.** The Activity was 78%.

**Q.** What about the Activity (Setaria verticillata [9]) of the same molecule?
**A.** Its Activity is 100%.

**Q.** What about the Activity (Setaria verticillata [10]) of the same molecule?
**A.** Its Activity is 92%.

**Q.** What about the Activity (Setaria viridis [11]) of the same molecule?
**A.** Its Activity is 66%.

**Q.** What about the Activity (Setaria verticillata [12]) of the same molecule?
**A.** Its Activity is 90%.

**Q.** What about the Activity (Setaria verticillata [13]) of the same molecule?
**A.** The Activity was 94%.

**Q.** What about the Activity (Setaria verticillata [14]) of the same molecule?
**A.** Its Activity is 99%.

**Q.** What about the Activity (Setaria viridis [15]) of the same molecule?
**A.** Its Activity is 57%.

**Q.** And the Activity (Setaria viridis [16])?
**A.** Its Activity is 89%.

**Q.** What about the Activity (Setaria viridis [17]) of the same molecule?
**A.** The Activity was 59%.

**Q.** What about the Activity (Setaria viridis [18]) of the same molecule?
**A.** Its Activity is 99%.

**Q.** What about the Activity (Setaria viridis [19]) of the same molecule?
**A.** Its Activity is 82%.

**Q.** And the Activity (Setaria viridis [20])?
**A.** The Activity was 97%.

**Q.** And the Activity (Setaria verticillata [21])?
**A.** Its Activity is 81%.

**Q.** What about the Activity (Setaria viridis [22]) of the same molecule?
**A.** The Activity was 56%.

**Q.** What about the Activity (Setaria viridis [23]) of the same molecule?
**A.** The Activity was 66%.

**Q.** And the Activity (Setaria verticillata [24])?
**A.** The Activity was 93%.

**Q.** And the Activity (Setaria viridis [25])?
**A.** The Activity was 53%.

**Q.** And the Activity (Setaria verticillata [26])?
**A.** Its Activity is 83%.

**Q.** And the Activity (Setaria verticillata [27])?
**A.** Its Activity is 75%.
